Activity calls are given as the source filed them.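 Rule for the calls: active = compounds whose average half-maximal inhibitory concentration on the enzyme falls below 100 micromolar; inactive = the rest.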
Target: Alkaline phosphatase, tissue-nonspecific isozyme (Homo sapiens) (UniProt P05186)
Assay: inhibition of tissue-nonspecific alkaline phosphatase – biochemical, set 2, CDP-Star luminescence, selectivity assay for human IAP inhibitor project, SAR follow-up (AID 540261)
Conditions: purified human TNAP, 30 min

Sequence of Alkaline phosphatase, tissue-nonspecific isozyme (Homo sapiens) (P05186 whole entry, looked up): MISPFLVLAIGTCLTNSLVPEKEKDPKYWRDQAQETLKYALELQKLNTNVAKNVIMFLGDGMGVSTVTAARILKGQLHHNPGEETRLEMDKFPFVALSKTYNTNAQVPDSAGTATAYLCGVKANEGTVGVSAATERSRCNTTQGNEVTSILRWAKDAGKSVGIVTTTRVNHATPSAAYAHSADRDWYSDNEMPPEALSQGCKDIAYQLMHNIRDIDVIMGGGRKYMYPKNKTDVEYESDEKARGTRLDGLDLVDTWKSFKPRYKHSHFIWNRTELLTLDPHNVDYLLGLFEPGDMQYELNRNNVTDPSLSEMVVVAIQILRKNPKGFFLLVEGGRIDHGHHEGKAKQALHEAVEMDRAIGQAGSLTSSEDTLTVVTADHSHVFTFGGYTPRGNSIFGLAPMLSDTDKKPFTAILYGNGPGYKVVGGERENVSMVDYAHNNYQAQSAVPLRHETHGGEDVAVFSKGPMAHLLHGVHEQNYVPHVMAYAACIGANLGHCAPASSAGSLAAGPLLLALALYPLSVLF

SMILES	IC50
O=C(CNS(=O)(=O)c1ccc2[nH]c(=O)oc2c1)NCc1ccc2c(c1)OCO2	> 100 µM (inactive)
O=C(CNS(=O)(=O)c1ccc2[nH]c(=O)oc2c1)Nc1ccc2c(c1)OCO2	> 100 µM (inactive)

Results, then the compound that gave them:

IC50	SMILES
> 100 µM (inactive)	N#Cc1ccc(CNC(=O)CCNS(=O)(=O)c2ccc3[nH]c(=O)oc3c2)cc1
> 100 µM (inactive)	Cc1ccc(C)c(NC(=O)CCNS(=O)(=O)c2ccc3[nH]c(=O)oc3c2)c1
> 100 µM (inactive)	COc1ccc(NC(=O)CNS(=O)(=O)c2ccc3[nH]c(=O)oc3c2)cc1OC

— PubChem BioAssay AID540261 (Sanford-Burnham Center for Chemical Genomics, 2011)
